# Measured values: patent publication US6864068B2, “Antifungal proteins” (Syngenta Limited, priority 1995, dated 2005)
# Square brackets hold non-standard residues; d marks the D form. Ends that are not written are not given here. pGlu = O=C1CC[C@@H](C(=O)O)N1
# Assays:
# F culmorum [1] = assay: Specific antifungal activity of Rs-AFP2 isoforms in SMF− and SMF+ media; assay type: cell-based; design: IC50 SMF− / IC50 SMF+: unit not given here
# Procedure: For each isoform, two independent purifications were carried out and the antifungal activity was determined in duplicate using F culmorum as a test fungus in two different media: a low ionic strength medium called SMF-(Terras et al, 1992, J Biol Chem, 267:15301-15309) and the same medium supplemented with 1 mM CaCl2 and 50 mM KCl called SMF+. The presence of salts in the test medium, especially salts with divalent cations, reduces the specific activity of Rs-AFP2. Seed-purified as well as yeast-expressed wild type Rs-AFP2 served as a control in the assays.
# The relative specific activity is expressed as the specific activity of the mutant divided by the specific activity of yRs-AFP2 and multiplied by 100. […] The specific activity was measured in medium SMF−and SMF+.
# Deviations are given as standard error of the mean (sem) based on the triplicate experiments. In SMF−, the medium without added salts, most of the derivatives show no decrease or only a minor decrease in antifungal activity, while in SMF+, the medium with added salts, there is a significant decrease in antifungal activity for several Rs-AFP2 isoforms.
# Fusarium culmorum [2] = assay: Liquid growth inhibition assay in half strength potato dextrose broth; assay type: cell-based; conditions: F culmorum; for IC50 (concentration required for 50% growth inhibition): from dose-response curves of serial dilutions; for type of inhibition (hyphal morphology): induction of multiple branches near the tips
# Procedure: Yeast cells transformed with either pTG3828, pMFprepro/Rs AFP2 or PMFpre/RsAFP2 were grown in selective SD medium until a saturated culture was obtained. To assess the antifungal activity of proteins secreted by the yeast cells, the supernatant of the yeast cultures was filtered (sterile 0.22 μm filter) and serially diluted in sterile water. Diluted samples (20 μl) were incubated in microtiter plate wells with 80 μl of half strength potato dextrose broth (Difco) containing spores 10^4 spores/ml) of Fusarium culmorum.
# Growth of the fungi was monitored by microspectrophotometry as described by Broekaert et al (1990, FEMS Microbiol Lett, 69:55-60). Homogenates of yeast cells were prepared by spinning down 1 ml of a saturated yeast culture, suspending the cells in 200 μl of water, vortexing the cells in the presence of 0.2 g of glass beads (425-600 μm), and clearing the homogenate by centrifugation (1 min, 10000×g). Antifungal activity could only be detected in the culture medium of yeast cells transformed with pMFprepro/RsAFP2, which contained about 2 μg/ml of Rs-AFP2 equivalents. The activity of the homogenate of these cells, as well as that of culture media and cell homogenates of yeast cells transformed with pMFpre/RsAFP2 or pTG3828 transformed yeasts was below the detection limit (about 0.2 μg/ml of Rs-AFP2 equivalents).
# The supernatant of 100 ml of a saturated culture of yeast transformed with pMFprepro/RsAFP2 (grown on minimal selective SD medium supplemented with 0.5% w/v of casamino acids) was centrifuged (4000 rpm, 10 min), and filtered (0.45 μm) to remove yeast cells and debris. Tris-HC1 (pH9) was added to the supernatant to a final concentration of 50 mM. The sample was loaded at a flow rate of 2 ml/min on an anion exchange chromatography column (Q-Sepharose Fast Flow, 20 ml bed volume, Pharmacia), on-line connected with a disposable reversed-phase C8 silica column (Bond Elut, 500 mg solid phase, Varian, Harbor City, USA). The antifungal activity was not retained on the Q-Sepharose matrix but bound to the C8 silica matrix. […] The latter eluate was dried in a rotating vacuum concentrator, redissolved in 0.5 ml 15% (v/v) acetonitrile containing 0.1% (v/v) TFA, and was loaded on a reversed-phase C2/C18 silica column (Pep-S, 5 μm beads, 0.4×25 cm, Pharmacia connected to a Waters 600 HPLC station pre-equilibriated with 15% acetonitrile containing 0.1% (v/v) TFA. After loading, the column was rinsed with the same buffer until the absorbance reached background level. The column was subsequently eluted with a 15 minute linear gradient from 15% to 50% acetonitrile containing 0.1% TFA at a flow rate of 1 ml/min. The eluate was monitored for proteins by on-line measurement of the absorbance at 280 nm. […] Twenty μl fractions were tested in a liquid growth inhibition assay: 20 μl samples were incubated in microtiter plate wells with 80 μl of half strength potato dextrose broth (Difco) containing 10^4 spores/ml of F culmorum; growth of the fungi was monitored by microspectrophotometry as described by Broekaert et al (1990, FEMS Microbiol Lett, 69: 55-60).
# The specific antifungal activity of RPC-purified peak A material, as well as that of plant-derivable Rs-AFP2, was determined by measuring the percentage growth inhibition of F culmorum caused by serial dilutions of the protein samples. […]
# various fungi = conditions: cited from earlier work
# Alternaria brassicicola = assay: Antifungal activity in three media differing in ionic strength (Table 3); assay type: cell-based; conditions: 72 hours
# Procedure: (§1) The antifungal activity of the G9R and V39R Rs-AFP2 isoforms was also assessed on a set of seven different phytopathogenic fungi in three media differing in ionic strength: SMF−, SMF plus 1 mM CaCl2 and 50 mM KCl, and SMF plus 5 mM CaCl2 and 50 mM KCl. The fungi tested were: Alternaria brassicicola, Ascochyta pisi, Botrytis cinerea, Fusarium culmorum, Nectria haematococca, Phoma betae and Verticillium dahliae.
# Nectria haematococca = assay: as above; assay type: cell-based; conditions: 72 hours
# Procedure: as §1
# Botrytis cinerea = assay: as above; assay type: cell-based; conditions: 72 hours
# Procedure: as §1
# Ascochyta pisi = assay: as above; assay type: cell-based; conditions: 72 hours
# Procedure: as §1
# Verticillium dahliae = assay: as above; assay type: cell-based; conditions: 96 hours
# Procedure: as §1
# Phoma betae = assay: as above; assay type: cell-based
# Procedure: as §1
# Fusarium culmorum [3] = assay: as above; assay type: cell-based; conditions: 96 hours
# Procedure: as §1
# F culmorum [4] = assay: Growth inhibition in SMF with varying CaCl2 or KCl (FIG. 7); assay type: cell-based
# Procedure: Their antifungal activity was determined in SMF with increasing Ca^2+ or K^+ concentration and compared with that of plant-derivable wild type Rs-AFP2 (isolated from seed) as well as yeast purified Rs-AFP2. FIG. 7 is a graph of the percentage growth inhibition of F culmorum caused by 10 μg/ml of yeast-purified Rs-AFP2 (SEQ ID NO: 20) (open circles), seed-purified Rs-AFP2 (SEQ ID NO: 77) (closed circles), Rs-AFP2/G9R (SEQ ID NO: 38) (squares) and Rs-AFP2/V39R (SEQ ID NO: 43) (triangles) in a medium consisting of SMF with varying concentrations of CaCl2 (panel A) and KCl (panel B).
substance,measurement,setting,value
yRs-AFP2: yeast-expressed wild-type Rs-AFP2 (QKLCQRPSGTWSGVCGNNNACKNQCIRLEKARHGSCNYVFPAHKCICYFPC; listed as Raphanus sativus) [reference compound],RELATIVE SPECIFIC ACTIVITY (%) IN MEDIUM SMF+,"F culmorum [1]; 1/IC50 of mutant divided by that of yRs-AFP2 x 100, 48 hour incubation, SMF with 1 mM CaCl2 and 50 mM KCl, preliminary tests",100%
same,RELATIVE SPECIFIC ACTIVITY (%) IN MEDIUM SMF−,"F culmorum [1]; 1/IC50 of mutant divided by that of yRs-AFP2 x 100, 48 hour incubation, low ionic strength medium, preliminary tests",100%
same,IC50 SMF+,"F culmorum [1]; 72 hours growth, high salt medium (1 mM CaCl2, 50 mM KCl), triplicate",8.5
same,IC50 SMF−,"F culmorum [1]; 72 hours growth, low salt medium, triplicate",2.7
same,IC50 (concentration required for 50% growth inhibition),Fusarium culmorum [2],about 3 μg/ml
same,type of inhibition (hyphal morphology),Fusarium culmorum [2],characteristic morphological distortion of the fungal hyphae
Rs-AFP2: plant-derivable wild-type antifungal protein 2 from Raphanus sativus (radish) seeds ([pGlu]KLCQRPSGTWSGVCGNNNACKNQCIRLEKARHGSCNYVFPAHKCICYFPC; cysteine pairing not given here; listed as Raphanus sativus) [reference compound],activity relative to Rs-AFP1 on various fungi,various fungi,two- to thirty-fold more active
same,salt-tolerance relative to Rs-AFP1,various fungi,increased salt-tolerence
same,"IC50 VALUES, A brassicicola, SMF + 1 mM CaCl2/50 mM KCl",Alternaria brassicicola,>50 µg/mL
same,"IC50 VALUES, A brassicicola, SMF + 5 mM CaCl2/50 mM KCl",Alternaria brassicicola,>100 µg/mL
same,"IC50 VALUES, A brassicicola, SMF",Alternaria brassicicola; SMF−,3.2 µg/mL
same,"IC50 VALUES, N haematococca, SMF + 1 mM CaCl2/50 mM KCl",Nectria haematococca,48.0 µg/mL
same,"IC50 VALUES, N haematococca, SMF + 5 mM CaCl2/50 mM KCl",Nectria haematococca,>100 µg/mL
same,"IC50 VALUES, N haematococca, SMF",Nectria haematococca; SMF−,2.0 µg/mL
same,"IC50 VALUES, B cinerea, SMF + 1 mM CaCl2/50 mM KCl",Botrytis cinerea,>50 µg/mL
same,"IC50 VALUES, B cinerea, SMF + 5 mM CaCl2/50 mM KCl",Botrytis cinerea,>100 µg/mL
same,"IC50 VALUES, B cinerea, SMF",Botrytis cinerea; SMF−,1.8 µg/mL
same,"IC50 VALUES, A pisi, SMF + 1 mM CaCl2/50 mM KCl",Ascochyta pisi,>50 µg/mL
same,"IC50 VALUES, A pisi, SMF + 5 mM CaCl2/50 mM KCl",Ascochyta pisi,>100 µg/mL
same,"IC50 VALUES, A pisi, SMF",Ascochyta pisi; SMF−,1.9 µg/mL
same,"IC50 VALUES, V dahliae, SMF + 1 mM CaCl2/50 mM KCl",Verticillium dahliae,11.0 µg/mL
same,"IC50 VALUES, V dahliae, SMF + 5 mM CaCl2/50 mM KCl",Verticillium dahliae,50.0 µg/mL
same,"IC50 VALUES, V dahliae, SMF",Verticillium dahliae; SMF−,1.0 µg/mL
same,"IC50 VALUES, P betae, SMF + 1 mM CaCl2/50 mM KCl",Phoma betae; 72 hours,14.0 µg/mL
same,"IC50 VALUES, P betae, SMF + 5 mM CaCl2/50 mM KCl",Phoma betae; 72 hours,27.0 µg/mL
same,"IC50 VALUES, P betae, SMF","Phoma betae; SMF−, 72 hours",0.9 µg/mL
same,"activity against P betae compared with the G9R and V39R isoforms, in words",Phoma betae; Table 3 data,appeared to be more active
same,"IC50 VALUES, F culmorum, SMF + 1 mM CaCl2/50 mM KCl",Fusarium culmorum [3],4.6 µg/mL
same,"IC50 VALUES, F culmorum, SMF + 5 mM CaCl2/50 mM KCl",Fusarium culmorum [3],22.0 µg/mL
same,"IC50 VALUES, F culmorum, SMF",Fusarium culmorum [3]; SMF−,2.1 µg/mL
same,IC50 (concentration required for 50% growth inhibition),Fusarium culmorum [2],about 3 μg/ml
same,type of inhibition (hyphal morphology),Fusarium culmorum [2],characteristic morphological distortion of the fungal hyphae
same,activity in the presence of 100 mM KCl,"F culmorum [4]; SMF with 100 mM KCl, FIG. 7, 10 μg/ml",drastically reduced
same,CaCl2 concentration at which fully active,F culmorum [4]; protein 10 μg/ml,≤ 1.25 mM
same,growth inhibition in the presence of 5mM CaCl2,"F culmorum [4]; protein 10 μg/ml, SMF with 5mM CaCl2",basically inactive
